Assay results reported in patent US7732431B2, “Pharmaceutical compositions comprising trimegestone” (aventis pharma SA, priority 1999, dated 2010).

Experiment: Storage stability and light sensitivity of trimegestone in powder form
Format: physicochemical
Description: Trimegestone is thus a molecule which is in itself stable. However, stability problems can appear during the preparation of tablets or if conventional pharmaceutical compositions comprising trimegestone are stored at 40° C. (dry or damp medium) or under more severe conditions. In particular, the appearance of (20S)-17alpha-methyl-7beta-(1-hydroxy-2-oxo-propyl)-oestra-4,9-dien-3-one, the 21R epimer of trimegestone, or even of oxopromegestone is observed under these conditions.

- Sensitivity to light: very low sensitivity to light
- Stability after storage (3 months at 70° C. under an inert gas): stable
- Stability after storage (6 months in a glass pill box at 50° C.): stable
Structure (SMILES): C[C@H](O)C(=O)[C@@]1(C)CC[C@H]2[C@@H]3CCC4=CC(=O)CCC4=C3CC[C@@]21C [Trimegestone, (21S)-17alpha-methyl-17beta-(2-hydroxy-1-oxo-propyl)-oestra-4,9-dien-3-one]
